Assay results: PubChem BioAssay (NCI)
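Exposure lasted 48 hours, with cells grown in 96-well plates and compounds tested at five concentrations. Definition used: TGI = concentration required for complete inhibition of growth.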 Where a SMILES comes first, the peptide text is derived from it. The star is where a group is joined. OBn = c1ccc(CO*)cc1

Legend:
Assay in all cases: DTP human tumour cell line panel, 48 h
MDA-MB-231 breast = test system: MDA-MB-231 breast
SK-MEL-28 melanoma = test system: SK-MEL-28 melanoma
HOP-62 NSCLC = test system: HOP-62 NSCLC
OVCAR-8 ovarian = test system: OVCAR-8 ovarian
SNB-19 CNS = test system: SNB-19 CNS
K-562 leukemia = test system: K-562 leukemia
SK-MEL-5 melanoma = test system: SK-MEL-5 melanoma
MDA-N = test system: MDA-N
HL-60(TB) leukemia = test system: HL-60(TB) leukemia
SF-539 CNS = test system: SF-539 CNS

Row | SMILES | TGI (MDA-MB-231 breast) [µM] | TGI (SK-MEL-28 melanoma) [µM] | TGI (HOP-62 NSCLC) [µM] | TGI (OVCAR-8 ovarian) [µM] | TGI (SNB-19 CNS) [µM] | TGI (K-562 leukemia) [µM] | TGI (SK-MEL-5 melanoma) [µM] | TGI (MDA-N) [µM] | TGI (HL-60(TB) leukemia) [µM] | TGI (SF-539 CNS) [µM]
1 | COc1ccc(-n2cnc3c(NC(C)(C)C(=O)O)ncnc32)cc1 | > 100 | > 100 | > 100 | > 100 | > 100 | > 100 | > 100 | > 100 |  | 
2 | CCOC(=O)c1c(-c2ccccc2)[nH]c2ccc(Cl)cc2c1=O | > 100 | > 100 | > 100 | > 100 | > 100 | > 100 | > 100 | > 100 | > 100 | > 100
3 | O=C(O)CCSc1nnc(COc2ccc(Cl)cc2)n1-c1ccccc1 | > 100 | > 100 | > 100 | > 100 | > 100 | > 100 |  | > 100 | > 100 | > 100
4 | O=C1c2cccnc2C(=O)c2c1nc1ccccc1c2-c1cncc(-c2c3c(nc4ccccc24)C(=O)c2cccnc2C3=O)c1 | 0.928 | 1.57 |  | 0.618 | 1.57 | > 24.8 | 0.52 | 0.778 | 0.478 | 
5 | O=C(/C=C/c1ccccc1)CCC1C(=O)NC(=O)NC1=O | > 100 | > 100 |  | > 100 | > 100 | > 100 | > 100 | > 100 | > 100 | > 100
6 | COC(=O)c1cc(C#N)[nH]c1-c1cccs1 | > 100 | > 100 | > 100 | > 100 | > 100 | > 100 |  | > 100 |  | > 100
7 | COc1cc(C2S/C(=C/c3ccccc3)C(=O)N2c2ccc([N+](=O)[O-])cc2)cc(OC)c1OC (stereo unspecified) | > 100 | > 100 | > 100 | > 100 | > 100 | > 100 | > 100 | > 100 | > 100 | > 100
8 | CN(C)CCN1C(=O)c2ccccc2C1(O)c1ccc(Cl)cc1 (stereo unspecified) | > 100 | > 100 | > 100 | > 100 | > 100 | > 100 | 67.2 | > 100 | > 100 | 
9 | CCOC(=O)Oc1cc2c(ccn2C)c2c1c1ccccc1n2C(=O)OCC | > 100 | > 100 | > 100 | > 100 |  | > 100 | > 100 | > 100 |  | > 100
10 | CCOC(=O)c1c(NC(=O)c2ccc(OC)cc2)sc2c1CCCC2 | > 100 | > 100 | > 100 | > 100 | > 100 | > 100 | > 100 | > 100 | > 100 | > 100
11 | CCn1c(SCC(=O)NNC(=S)Nc2ccc(F)cc2)nc2ccccc2c1=O | > 100 | > 100 | > 100 | > 100 | > 100 | > 100 | > 100 | > 100 | > 100 | > 100
12 | O=c1c2c3c(sc2nc2n1N=CN(c1ccc(Cl)cc1)C2)CCCC3 | > 100 | > 100 | > 100 | > 100 | > 100 | > 100 | > 100 | > 100 |  | 
13 | CC1=[N+]([O-])C(C)(C)N(O)C1(C)C | > 100 | > 100 | > 100 | > 100 | > 100 | > 100 | > 100 | > 100 | > 100 | > 100
14 | Cc1ccc(S(=O)(=O)n2cnc(CC(NC(=O)C3CCC(=O)N3C(=O)OCc3ccccc3)C(=O)N3CCCC3C(=O)NN)c2)cc1 (stereo unspecified) | > 100 | > 100 | > 100 | > 100 | > 100 | > 100 | > 100 | > 100 | > 100 | 
15 | C#C[C@]1(O)CC[C@H]2[C@@H]3CCC4=C/C(=N\OCCN5CCCC5)CC[C@]4(C)[C@H]3CC[C@@]21C | 36.2 | 44.6 | 26.7 | 40.7 | 32.2 | > 39.2 | 15.4 | 11.3 | 8.57 | 28.2
16 | CC(C)(C)C(=O)Nc1cccc(-c2ccc[nH]2)n1 | > 100 | > 100 | > 100 | > 100 | > 100 | > 100 | > 100 | > 100 |  | > 100
17 | CC(C)(CCCCC(C)(C)NCC1COc2ccccc2O1)NCC1COc2ccccc2O1 (stereo unspecified) | > 10 | 3.66 | > 10 | > 10 | > 10 | > 10 | 2.95 | 5.66 | > 10 | 3.34
18 | NC(CCC(=O)OCc1ccccc1)C(=O)NC(CCC(=O)OCc1ccccc1)C(=O)O (stereo unspecified) (H-Glu(OBn)-Glu(OBn)-OH; configuration not given here) | > 100 | > 100 | > 100 | > 100 | > 100 | > 100 | > 100 | > 100 | > 100 | 
19 | O=c1[nH]c(=O)n(C2CC(O)C(CO)O2)c2nc3ccc4ccccc4c3nc12 (stereo unspecified) | > 100 | > 100 | 98.3 | > 100 | > 100 | > 100 | > 100 | > 100 |  | > 100
20 | CC1(C)OC(=O)CC12CCN(Cc1ccccc1)CC2 | > 100 | > 100 | > 100 | > 100 | > 100 | > 100 | > 100 | > 100 | > 100 | > 100
21 | O=c1[nH]n(Cc2ccccc2CCl)c2ccc([N+](=O)[O-])cc12 | > 100 | > 100 | > 100 | > 100 | > 100 | > 100 | 30.4 | > 100 | 99.6 | > 100
22 | COc1cc(/C=N/NC2=NCCCN2)ccc1O | > 100 | > 100 | > 100 | > 100 | > 100 | > 100 | > 100 | > 100 | > 100 | > 100
23 | CC(C)C(Cl)CC/C(CBr)=C(\Cl)CCl (stereo unspecified) | 8.36 | 12 | 31.1 | 4.65 | 28.3 | 3.69 | 5.95 | 5.63 | 2.24 | 29.5

Row | SMILES | TGI (MDA-MB-231 breast) [µM] | TGI (SK-MEL-28 melanoma) [µM] | TGI (HOP-62 NSCLC) [µM] | TGI (OVCAR-8 ovarian) [µM] | TGI (SNB-19 CNS) [µM] | TGI (K-562 leukemia) [µM] | TGI (SK-MEL-5 melanoma) [µM] | TGI (MDA-N) [µM] | TGI (HL-60(TB) leukemia) [µM] | TGI (SF-539 CNS) [µM]
24 | CCO/C(O)=C(/C(=N)N1CCCC1)C(=O)Nc1ccc(Cl)cc1 | > 100 | > 100 | > 100 | > 100 | > 100 | > 100 |  | > 100 | > 100 | > 100
25 | CN1CCC/C1=C1\C(=O)c2cccn2C1=O | > 100 | > 100 | > 100 | > 100 | > 100 | > 100 | > 100 | > 100 | > 100 | 
26 | COc1ccc(NC(C)=O)cc1N1C(=O)/C(=C\c2cc(OC)c(OC)c(OC)c2)S(=O)(=O)C1c1ccccc1 (stereo unspecified) | > 100 | > 100 | > 100 | > 100 | > 100 | > 100 | > 100 | > 100 | 43 | > 100
27 | O=c1[nH]c2ccsc2c(=O)n1COCc1ccccc1 | > 100 | > 100 | > 100 | > 100 | > 100 | > 100 | > 100 | > 100 | > 100 | > 100
28 | C=CC(c1ccccc1)C1(O)c2cccc(O)c2C(=O)c2c(O)cccc21 (stereo unspecified) | 36.7 | 41.4 | 41.1 | 43 |  | 37.7 | 32 | 20.7 |  | 84.5
29 | O=C(/C=C\c1ccccc1-c1ccccc1)c1ccccc1 | > 100 |  | > 100 | > 100 |  | > 100 | > 100 | > 100 | > 100 | > 100
30 | N#CC1=C(N2CCOCC2)CCC1 | > 100 |  | > 100 | > 100 | > 100 | > 100 | > 100 | > 100 | > 100 | > 100
31 | CO[C@H](c1ccccc1)[C@H](O)[C@](O)(c1ccccc1)P(=O)(OC)OC | > 100 | > 100 |  | > 100 | > 100 | > 100 | > 100 | > 100 | > 100 | > 100
32 | Cc1ccccc1NC(=O)/C(C#N)=N\Nc1nc[nH]c1C(N)=O | > 100 | > 100 | > 100 | > 100 | > 100 | > 100 | > 100 | > 100 | > 100 | 
33 | NC(=S)N/N=C(/C(=O)Nc1nc2ccc([N+](=O)[O-])cc2s1)C1C(=O)NC(=S)NC1=O | > 100 | > 100 |  | > 100 | > 100 | > 100 |  | > 100 | > 100 | > 100
34 | N=C(N)C1CN(CC=O)C(=O)NC1=O (stereo unspecified) | > 100 | > 100 | > 100 | > 100 | > 100 | > 100 | > 100 | > 100 | > 100 | 
35 | CC(CCC(=O)O)[C@H]1CCC2[C@H]3C(CC(=O)[C@@]21C)[C@@]1(C)CCC(O)C[C@H]1C[C@@H]3O (stereo partly specified) | > 100 | > 100 | > 100 | > 100 | > 100 | > 100 |  | > 100 | > 100 | > 100
36 | O=C1CCSc2c(cnc3ccccc23)N1 | > 100 | > 100 | > 100 | > 100 |  | > 100 | > 100 | > 100 | > 100 | > 100
37 | Nc1c(Cl)c([N+](=O)[O-])cc2c1OCCCCO2 | > 100 | > 100 | > 100 | > 100 |  | > 100 | > 100 | > 100 | > 100 | > 100
38 | COc1ccc(C(=O)N2CCN(c3ccc4[nH]c(=O)oc4c3)CC2)cc1 | > 100 | > 100 | > 100 | > 100 | > 100 |  | > 100 | > 100 | > 100 | > 100
39 | CC(C)=CCC[C@@H](C)C1=C(Nc2ccccc2)C(O)=C(C)C(=O)C1=O | > 27.4 | 30.9 | 15.6 | 23.5 | 22.8 | > 39.9 | 7.97 | 54.2 | 1.35 | 
40 | O=C1NC(Cc2c[nH]c3ccccc23)C(=O)N2C(c3ccccc3)c3[nH]c4ccccc4c3C[C@@H]12 (stereo partly specified) | 42.2 | > 100 | 38.2 | 82.7 | > 100 | 55.1 | 32.7 | 38.9 | 50.8 | 
41 | CC(C)N(c1cc2c(cc1F)c(=O)c(C(=O)O)cn2-c1ccc(N2CCN(C)CC2)cn1)C(C)C | > 100 | > 100 | > 100 | > 100 | > 100 | > 100 |  | > 100 | > 100 | > 100
42 | CCCCc1ccc(N2C(=O)c3cccnc3S2(=O)=O)cc1 | > 100 | > 100 | > 100 | > 100 | > 100 | > 100 |  | > 100 | > 100 | > 100
43 | CN1CCN(C(=S)N(C)C(=O)c2cccs2)CC1 | > 100 |  |  | > 100 | > 100 | > 100 | > 100 | > 100 |  | 
44 | O=C(Nc1ccccc1)C(=O)C(C(=O)c1ccccc1)C(c1ccccc1)c1ccccc1 (stereo unspecified) | > 10 | > 10 | > 10 | > 10 |  | > 10 | > 10 | > 10 | > 10 | 
45 | COc1ccc(-c2cc(-c3ccco3)c(C#N)c(=S)n2C2OC(CO)C(O)C(O)C2O)cc1 (stereo unspecified) | > 100 | > 100 | > 100 | > 100 | > 100 | > 100 | > 100 | > 100 |  | > 100
